Calls of active or inactive are those of the source. Rule as the data show it, for most assays here: actives have a measured EC50 and inactives only a lower limit.
Key:
[1] = molecular target: T1, High affinity choline transporter 1 (Homo sapiens, UniProt Q9GZV3); assay: CHT inhibitors, dose response, cell-based, 5-point CRC, membrane potential dye (AID 504840); format: functional
T1 sequence (Q9GZV3 whole entry): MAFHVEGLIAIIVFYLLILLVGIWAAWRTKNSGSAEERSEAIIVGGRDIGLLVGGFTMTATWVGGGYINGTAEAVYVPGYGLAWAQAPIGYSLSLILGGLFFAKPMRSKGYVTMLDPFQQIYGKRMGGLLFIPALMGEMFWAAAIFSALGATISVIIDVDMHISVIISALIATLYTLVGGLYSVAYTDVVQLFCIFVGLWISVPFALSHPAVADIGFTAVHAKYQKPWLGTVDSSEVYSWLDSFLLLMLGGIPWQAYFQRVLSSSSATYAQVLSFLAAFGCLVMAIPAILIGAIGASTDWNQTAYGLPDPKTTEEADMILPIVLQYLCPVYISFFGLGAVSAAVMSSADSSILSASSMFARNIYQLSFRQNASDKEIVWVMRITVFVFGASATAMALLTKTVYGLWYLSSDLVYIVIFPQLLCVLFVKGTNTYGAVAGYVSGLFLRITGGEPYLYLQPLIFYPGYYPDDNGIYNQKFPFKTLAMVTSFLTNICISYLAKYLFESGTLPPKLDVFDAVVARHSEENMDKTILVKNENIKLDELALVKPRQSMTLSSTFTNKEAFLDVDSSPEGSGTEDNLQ

[2] = cytotoxicity toward NIH3T3 fibroblasts, dose response, counter-screen, cell-based, ATP luminescence, mouse fibroblasts (AID 2010); format: functional;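 also: cells exposed to compound for about 90 hours before reading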
[3] = inhibitors of intracellular T. cruzi replication, confirmation, NIH3T3 host cells, beta-gal luminescence (AID 2044); format: functional, cell-based;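 also: intracellular parasites grown in NIH/3T3 mouse fibroblasts as host cells; luminescent beta-galactosidase reporter signal from transgenic T. cruzi replicating inside host cells; inhibitors lower the luminescence signal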
[4] = microbe, parasite or virus in culture; format: functional; conditions: Mycobacterium tuberculosis
[5] = C. albicans growth with fluconazole, confirmation, fluorescence, retest (AID 2467); format: functional, cell-based
[6] = system: Streptococcus sp. 'group A'; assay: growth inhibition of control SK(-) GAS strain, dose response, counter-screen for streptokinase expression inhibitor project, luminescence, kanamycin, BacTiterGlo, confirmation (AID 1900); format: functional, organism-based
Streptococcus = assay: Group A Streptococcus viability loss, dose response, counter-screen for streptokinase expression inhibitor project, luminescence, BacTiterGlo (AID 1915); format: functional, organism-based;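 also: potency for reduction of bacterial viability or growth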
[7] = NIH-3T3 fibroblast cytotoxicity, dose response, cytotoxicity control, cell-based, fluorescence, Alamar Blue, secondary assay (AID 2327); format: functional;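 also: NIH-3T3 mouse fibroblasts cultured with fluconazole at 8 µg/mL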
Cytochrome P450 1A2 = molecular target: T2, Cytochrome P450 1A2 (Homo sapiens, UniProt P05177);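 also: PubChem cytochrome P450 panel assay, CYP1A2 panel member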
T2 sequence (P05177 whole entry): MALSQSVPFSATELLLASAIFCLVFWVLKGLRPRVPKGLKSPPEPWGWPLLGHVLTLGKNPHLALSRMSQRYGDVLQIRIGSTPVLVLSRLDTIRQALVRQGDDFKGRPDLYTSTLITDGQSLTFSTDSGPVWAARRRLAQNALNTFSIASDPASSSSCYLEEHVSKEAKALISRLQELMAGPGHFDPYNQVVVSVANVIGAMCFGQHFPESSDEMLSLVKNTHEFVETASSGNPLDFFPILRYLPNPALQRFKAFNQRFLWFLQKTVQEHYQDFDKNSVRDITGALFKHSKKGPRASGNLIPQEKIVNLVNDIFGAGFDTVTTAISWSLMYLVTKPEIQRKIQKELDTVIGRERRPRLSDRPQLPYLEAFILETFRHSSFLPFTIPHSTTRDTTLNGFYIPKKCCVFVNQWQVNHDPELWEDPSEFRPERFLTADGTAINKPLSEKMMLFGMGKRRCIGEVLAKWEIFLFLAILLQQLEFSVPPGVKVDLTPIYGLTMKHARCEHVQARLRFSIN

Cytochrome P450 3A4 = Cytochrome P450 3A4 (Homo sapiens, UniProt P08684);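 also: CYP3A4 tested as one member of a cytochrome P450 panel screen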
[8] = Luminescence Cell-Based Dose Confirmation HTS to Identify Inhibitors of Platelet Dense Granule Release. [Related pubchem assays: 1663 (Primary HTS), 1678 (Summary of Project)]; format: functional
[9] = molecular target: Luciferin 4-monooxygenase (Photinus pyralis, UniProt P08659); assay: firefly luciferase enzyme inhibitors, dose response, biochemical, luminescence (AID 1891)
[10] = molecular target: T3, Ubiquitin-conjugating enzyme E2 N (Homo sapiens, UniProt P61088); format: functional;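 also: Dose-response confirmation in a TR-FRET assay detecting UBC13-driven polyubiquitin chain formation, inhibition measured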
T3 sequence (P61088 whole entry): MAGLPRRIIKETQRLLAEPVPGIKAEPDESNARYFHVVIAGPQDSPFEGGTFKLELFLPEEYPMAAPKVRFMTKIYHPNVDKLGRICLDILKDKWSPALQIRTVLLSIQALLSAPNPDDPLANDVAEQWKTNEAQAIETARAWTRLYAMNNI

[11] = inhibitors of firefly luciferase expression or activity, dose response, H4 neuroglioma cells, luminescence (AID 1990); format: functional, cell-based
[12] = Luminescence Cell-Based Dose Response HTS to Identify Inhibitors of 5'UTR Stem-Loop Driven Prion Protein mRNA Translation in H4 Neuroglioblastoma Cells. [Related pubchem assays: 1827 (Project Summary), 1813 (Primary HTS)]; format: functional
[13] = inhibitors of SNCA 5'UTR-driven reporter translation, confirmation, H4 neuroglioma cells, luminescence (AID 1988); format: functional, cell-based

Sequence of Luciferin 4-monooxygenase (P08659 whole entry): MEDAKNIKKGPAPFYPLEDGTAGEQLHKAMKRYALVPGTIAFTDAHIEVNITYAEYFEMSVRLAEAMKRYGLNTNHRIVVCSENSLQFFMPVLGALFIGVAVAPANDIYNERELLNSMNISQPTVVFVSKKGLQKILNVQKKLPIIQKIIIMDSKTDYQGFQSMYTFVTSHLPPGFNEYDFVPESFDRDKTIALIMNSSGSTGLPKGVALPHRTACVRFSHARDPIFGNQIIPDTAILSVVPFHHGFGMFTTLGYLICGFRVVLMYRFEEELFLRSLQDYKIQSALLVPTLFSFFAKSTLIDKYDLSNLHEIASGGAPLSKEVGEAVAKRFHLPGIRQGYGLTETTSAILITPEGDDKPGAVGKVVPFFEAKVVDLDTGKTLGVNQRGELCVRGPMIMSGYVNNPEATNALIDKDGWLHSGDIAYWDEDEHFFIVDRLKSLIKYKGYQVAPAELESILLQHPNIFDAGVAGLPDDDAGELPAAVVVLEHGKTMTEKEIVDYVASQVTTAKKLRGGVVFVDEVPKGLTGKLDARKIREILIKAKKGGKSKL
Sequence of Cytochrome P450 3A4 (P08684 whole entry): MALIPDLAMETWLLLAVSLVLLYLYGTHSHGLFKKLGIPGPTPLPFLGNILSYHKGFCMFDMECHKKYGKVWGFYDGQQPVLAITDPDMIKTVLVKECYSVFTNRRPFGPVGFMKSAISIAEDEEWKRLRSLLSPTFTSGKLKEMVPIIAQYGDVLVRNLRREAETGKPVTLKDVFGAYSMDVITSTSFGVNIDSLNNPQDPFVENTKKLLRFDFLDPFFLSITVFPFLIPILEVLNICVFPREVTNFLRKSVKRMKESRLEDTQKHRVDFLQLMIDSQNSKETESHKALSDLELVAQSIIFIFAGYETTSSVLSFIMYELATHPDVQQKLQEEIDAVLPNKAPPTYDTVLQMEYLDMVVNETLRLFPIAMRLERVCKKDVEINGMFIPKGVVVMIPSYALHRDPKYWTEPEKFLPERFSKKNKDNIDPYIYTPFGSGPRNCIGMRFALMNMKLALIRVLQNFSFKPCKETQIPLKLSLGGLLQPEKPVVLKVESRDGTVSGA

With `Cc1ccc(C(=O)C[n+]2cccc3ccccc32)cc1` the IC50 [1] was 13.8 µM (active), the EC50 [2] was > 60 µM (not active) and the EC50 [3] was 32.4 µM (active).

For `Cc1ccc(-c2csc3ncnc(Nc4ccc(N5CCOCC5)cc4)c23)cc1`, the CC50 [4] was > 40 µM (active).

In the case of `CCn1cc([N+](=O)[O-])c(C(=O)N2N=C(c3ccc4ccccc4c3)CC2c2ccccc2O)n1` (centres undefined), the CC50 [4] is reported as 33.1 µM (active).

With `C=C(C)COc1ccc(-c2[nH]nc(C)c2-c2ccccc2)c(O)c1` the EC50 [5] was 2.67 µM (active), the EC50 [6] was 9.45 µM (active) and the EC50 (Streptococcus) was 16.4 µM (active). The EC50 [7] was 93.6 µM (active).

In the case of `CC[N+](CC)(CCCNC1=CC(=O)C(NCCC[N+](CC)(CC)Cc2ccccc2)=CC1=O)Cc1ccccc1` [BENZOQUINONIUM], the AC50 (Cytochrome P450 1A2) is reported as 31.6 µM (inconclusive).

For `Nc1ncnc2c1ncn2C1CCCC1`, the AC50 (Cytochrome P450 1A2) was 20 µM (inconclusive) and the AC50 (Cytochrome P450 3A4) was 0.0398 µM (inconclusive).

For `CN(C)C=O.CNC(=O)CSc1nc2nc(C)cc(C)n2n1`, the EC50 [8] was > 112 µM (not active) and the EC50 [9] was > 112 µM (not active).

With `COc1cc2sc(-c3ccc(S(C)(=O)=O)cc3)c(C(=O)NCCCCO)c2cc1OC` the IC50 [10] was > 20 µM (inactive).

For `CN1C[C@H](C(=O)N[C@@]2(C)O[C@@]3(O)[C@H]4CCCN4C(=O)[C@@H](Cc4ccccc4)N3C2=O)C=C2c3cccc4[nH]cc(c34)C[C@@H]21`, the AC50 (Cytochrome P450 1A2) was 3.16 µM (inconclusive).

With `O=C(CC(CC(=O)c1ccc(Cl)cc1)c1ccccc1C(=O)O)c1ccc(Cl)cc1` the IC50 [1] was 13.8 µM (active).

In the case of `Clc1cccc(-c2cc3nc4c(c(NCc5ccco5)n3n2)CCCC4)c1`, the CC50 [4] is reported as 23.7 µM (active).

In the case of `c1ccc2c(C[C@@H]3CNCCN3CC3CCCCC3)cccc2c1`, the IC50 [10] is reported as > 20 µM (inactive).

With `O=C(NCc1ccccc1)C(c1cccnc1)N(C(=O)c1ccccn1)c1ccccc1F` (centres undefined) the EC50 [8] was > 112 µM (not active) and the EC50 [9] was > 112 µM (not active).

With `CCOCCN1CCN(c2c(CC)c(C)nc3cc(-c4cc(OC)cc(OC)c4)nn23)CC1` the CC50 [4] was > 40 µM (active).

For `Nc1ccn([C@@H]2O[C@H](CO)[C@@H](O)C2O)c(=O)n1` (some centres undefined) [CYTARABINE], the CC50 [4] was 1.8 µM (active).

With `COc1ccccc1/C=C/CN1CCCC(CO)(Cc2cccc(Cl)c2)C1` (centres undefined) the EC50 [8] was > 112 µM (not active) and the EC50 [9] was > 112 µM (not active).

In the case of `O=C(NC1CCCCCCC1)c1ccc(S(=O)(=O)N2CCCC2)cc1`, the IC50 [1] is reported as 14.5 µM (active).

With `COc1ccc(Nc2cc3n(c(=O)n2)CCc2cc(OC)c(OC)cc2-3)c(C)c1` the EC50 [11] was 17.3 µM (active), the EC50 [12] was 41.3 µM (active) and the EC50 [8] was 0.987 µM (active). For the same compound, the EC50 [9] was > 112 µM (not active) and the EC50 [13] was 35.6 µM (active).

For `COc1cc2c(C(=O)N3CCN(c4cccc(Cl)c4)CC3)cn(CC(C)C)c(=O)c2cc1OC`, the CC50 [4] was > 40 µM (active).

In the case of `CCOc1cc(N2CCOCC2)c(OCC)cc1NC(=O)c1nc2nc(C)cc(C)n2n1`, the EC50 [5] is reported as > 38 µM (not active) and the EC50 [7] is reported as > 160 µM (inactive).

In the case of `CC1(C)CC(=O)C2=C(C1)N(c1ccccc1)C(=O)CC2c1ccsc1` (centres undefined), the EC50 [8] is reported as > 112 µM (not active) and the EC50 [9] is reported as > 112 µM (not active).

In the case of `COc1ccc(-c2cc(C(F)(F)F)nc(SCC(=O)NCCN3CCOCC3)n2)cc1OC`, the EC50 [8] is reported as 47.9 µM (active) and the EC50 [9] is reported as > 112 µM (not active).

For `CCn1cc(C(=O)N2CCCCC2)c(=O)c2cc(S(=O)(=O)N3CCC(C)CC3)ccc21`, the IC50 [1] was 16.2 µM (active).

— ChEMBL document CHEMBL1201862, “PubChem BioAssay data set” (2004)
